Results reported in patent US20170121344A1 (Siga Technologies, Inc., priority 2009, published 2017).
Read-outs that look alike come from different tables or passages of the source.

Columns and labels:
[1] = system: Dengue-2 (Strain New Guinea C); assay: Viral yield assay against Dengue-2 in Vero cells; type: cell-based, Dengue virus; conditions: Dengue virus, Vero cells
Outline: (§1)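 Vero cells were infected with dengue virus at an MOI of 0.1, treated with compound or DMSO vehicle, and kept at 37° C. Supernatant virus was harvested 48 hours post infection and titered on Vero cells, with EC50 derived from yield reduction.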

four serotypes of dengue = assay: Yield assays against each of the four serotypes of dengue; type: cell-based, Dengue virus; conditions: all four serotypes
Method: Initially, the chemical structures of the hit compounds were examined for chemical tractability. […] Hits that passed this medicinal chemistry filter were evaluated for their potency. Compound potency was determined by evaluating inhibitory activity across a broad range of concentrations. Nonlinear regression was used to generate best-fit inhibition curves and to calculate the 50% effective concentration (EC50). The selectivity or specificity of a given compound is typically expressed as a ratio of its cytotoxicity to its biological effect. A cell proliferation assay is used to calculate a 50% cytotoxicity concentration (CC50); the ratio of this value to the EC50 is referred to as the therapeutic index (T.I.=CC50/EC50). Two types of assays have been used to determine cytotoxicity, both of which are standard methods for quantitating the reductase activity produced in metabolically active cells (22). […] Verification that these compounds act against each of the four serotypes of dengue was done with yield assays carried out at several drug concentrations, and the titer determined for each.
Compounds that were active in the primary screen were tested for activity in viral yield assays. […] The EC50 was calculated through ExcelFit. Activities against other serotypes of dengue virus were determined in a similar way.

dengue [2] = conditions: mouse model; cited from earlier work
dengue [3] = conditions: cited from earlier work
DENV-1 = assay: Viral yield assay against DENV-1 in Vero cells; type: cell-based; conditions: Dengue virus
Outline: as §1

DENV-3 = assay: Viral yield assay against DENV-3 in Vero cells; type: cell-based; conditions: Dengue virus
Outline: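 Yield reduction, Vero; MOI 0.1; compound vs DMSO; 37° C; harvest 48 h p.i.; titer on Vero; EC50 fitted. Other serotypes run the same way.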

DENV-4 = assay: Viral yield assay against DENV-4 in Vero cells; type: cell-based; conditions: Dengue virus
Outline: as §1

[4] = DENV2, viral yield assay, MOI 0.1, 48 hours post infection, read-out: Activity (EC50 in μM) DENV-2

Structure (SMILES) | EC50 [1, 4] | EC50 (DENV-1; DENV1, viral yield assay) | EC50 (DENV-3; DENV3, viral yield assay) | EC50 (DENV-4; DENV4, viral yield assay) | other results
Nc1c(C(=O)Nc2nnc(-c3ccccc3)s2)sc2nc3c(cc12)CCCCC3 [Compound 1, 3-Amino-6,7,8,9-tetrahydro-5H-1-thia-10-aza-cyclohepta[f]indene-2-carboxylic acid (5-phenyl-[1,3,4]thiadiazol-2-yl)-amide] |  |  |  |  | EC50 ([1]; MOI 0.1, harvested 48 hours post infection, read-out: Activity (EC50 class) against Dengue-2 Virus in Vero cells): < 5 µM; Activity against serotypes of dengue (four serotypes of dengue): activity against all four serotypes of dengue
NC(=O)c1ncn([C@@H]2O[C@H](CO)[C@@H](O)[C@H]2O)n1 [ribavirin, Ribavirin] |  |  |  |  | Protection against dengue (dengue [2]): did not show protection; Adverse effects induced (dengue [3]; animal model, literature): induced anemia and thrombocytosis; Protection against dengue (dengue [3]; rhesus monkey model): did not show protection
CCNc1c(C(=O)Nc2cccc(C(F)(F)F)c2)sc2nc(-c3cccs3)ccc12 [Compound 321, 3-(ethylamino)-6-(2-thienyl)-N-[3-(trifluoromethyl)phenyl]thieno[2,3-b]pyridine-2-carboxamide] |  |  |  |  | EC50 ([1]; DENV2, read-out: Activity (EC50 in μM) DENV-2): < 5 µM; EC50 (DENV-1; DENV1): < 5 µM; EC50 (DENV-3; DENV3): < 5 µM; EC50 (DENV-4; DENV4): < 5 µM
Nc1c(C(=O)Nc2ccc(OC(F)(F)F)cc2)sc2nc(-c3cccc(OC(F)F)c3)ccc12 [Compound 339, 3-amino-6-[3-(difluoromethoxy)phenyl]-N-[4-(trifluoromethoxy)phenyl]thieno[2,3-b]pyridine-2-carboxamide] | < 5 µM | < 5 µM | < 5 µM | < 5 µM | 
Nc1c(C(=O)Nc2ccc(Br)cc2)sc2nc(-c3ccc(Cl)cc3)ccc12 [Compound 425] | < 5 µM | < 5 µM | < 5 µM | < 5 µM | 
COc1cccc(-c2ccc3c(N)c(C(=O)Nc4cccc(Cl)c4)sc3n2)c1 [Compound 561, 3-amino-N-(3-chlorophenyl)-6-(3-methoxyphenyl)thieno[2,3-b]pyridine-2-carboxamide] | < 5 µM | < 5 µM | < 5 µM | < 5 µM | 
Cc1ccc2c(N)c(C(=O)Nc3nnc(-c4ccccc4)s3)sc2n1 [Compound 284, 3-amino-6-methyl-N-(5-phenyl-1,3,4-thiadiazol-2-yl)thieno[2,3-b]pyridine-2-carboxamide] | < 5 µM | < 5 µM | 5 to 25 µM | > 25 µM | 
CCCCSc1nc2ccc(NC(=O)c3sc4nc(-c5cccc(OC)c5)ccc4c3N)cc2s1 [Compound 570, 3-amino-N-(2-butylsulfanyl-1,3-benzo-thiazol-6-yl)-6-(3-methoxyphenyl)thieno [2,3-b]pyridine-2-carboxamide] | < 5 µM | < 5 µM | < 5 µM | < 5 µM | 
